Active and inactive are the calls of the source.
Legend:
[1] = molecular target: Dual specificity tyrosine-phosphorylation-regulated kinase 1A (Rattus norvegicus, UniProt Q63470); type: biochemical, Homo sapiens
[2] = Counterscreen for IDE inhibitors: Luminescence-based cell-based high throughput dose response assay to identify compounds that are cytotoxic to HEK cells. [Related pubchem assays: 434962 (Primary screen (IDE inhibitors in singlicate)), 449730 (Counterscreen (Cytotoxicity in triplicate)), 435028 (Confirmation (IDE inhibitors in triplicate)) …; type: functional; conditions: HEK293
[3] = molecular target: Intestinal-type alkaline phosphatase (Homo sapiens, UniProt P09923); experiment: activation of human intestinal alkaline phosphatase – biochemical, dose response (AID 488873); type: functional
Chain of Intestinal-type alkaline phosphatase (Homo sapiens, UniProt P09923) (P09923 whole entry): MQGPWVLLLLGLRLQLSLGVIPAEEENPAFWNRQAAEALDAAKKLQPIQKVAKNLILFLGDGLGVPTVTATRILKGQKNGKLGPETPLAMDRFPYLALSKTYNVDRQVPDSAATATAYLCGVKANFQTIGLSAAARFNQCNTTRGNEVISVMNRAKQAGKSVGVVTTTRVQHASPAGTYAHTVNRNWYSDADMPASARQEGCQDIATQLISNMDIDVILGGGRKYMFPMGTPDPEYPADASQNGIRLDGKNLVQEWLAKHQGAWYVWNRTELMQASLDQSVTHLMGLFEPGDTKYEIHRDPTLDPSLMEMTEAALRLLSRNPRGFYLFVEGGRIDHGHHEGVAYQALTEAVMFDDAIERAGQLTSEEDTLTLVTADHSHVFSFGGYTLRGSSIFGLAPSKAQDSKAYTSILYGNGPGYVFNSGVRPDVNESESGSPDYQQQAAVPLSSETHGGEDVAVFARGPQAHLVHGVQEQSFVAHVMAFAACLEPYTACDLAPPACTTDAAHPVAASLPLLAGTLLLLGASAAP

[4] = molecular target: Intestinal-type alkaline phosphatase (Mus musculus, UniProt P24822); experiment: mouse intestinal alkaline phosphatase activators, dose response, biochemical, luminescence, uHTS hits (AID 488783); type: functional
Chain of Intestinal-type alkaline phosphatase (Mus musculus, UniProt P24822) (P24822 whole entry): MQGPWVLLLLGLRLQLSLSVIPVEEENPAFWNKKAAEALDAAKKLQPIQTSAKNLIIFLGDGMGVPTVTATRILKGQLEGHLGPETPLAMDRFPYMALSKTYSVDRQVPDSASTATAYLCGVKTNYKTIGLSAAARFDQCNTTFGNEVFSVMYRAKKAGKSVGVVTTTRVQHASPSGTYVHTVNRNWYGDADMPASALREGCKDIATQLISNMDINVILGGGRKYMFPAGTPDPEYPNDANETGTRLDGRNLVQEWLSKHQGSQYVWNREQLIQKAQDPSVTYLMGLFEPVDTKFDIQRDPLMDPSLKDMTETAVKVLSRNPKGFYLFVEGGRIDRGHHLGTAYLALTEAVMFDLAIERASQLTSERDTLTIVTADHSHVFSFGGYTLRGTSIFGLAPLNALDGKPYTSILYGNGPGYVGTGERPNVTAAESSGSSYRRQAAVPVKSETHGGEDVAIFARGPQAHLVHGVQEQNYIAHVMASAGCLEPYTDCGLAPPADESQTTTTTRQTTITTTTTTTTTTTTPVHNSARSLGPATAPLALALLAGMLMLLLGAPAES

Insulin-degrading enzyme = molecular target: T1, Insulin-degrading enzyme (Homo sapiens, UniProt P14735); experiment: Dose Response: Fluorescence polarization-based cell-based high throughput dose response assay for inhibitors of insulin-degrading enzyme (IDE). [Related pubchem assays: 434962 (Primary screen (IDE inhibitors in singlicate)), 449730 (Counterscreen (Cytotoxicity in triplicate)), 435028 (Confirmation (IDE inhibitors in triplicate)), 434984 (Summary …; type: functional
T1 sequence (P14735 whole entry): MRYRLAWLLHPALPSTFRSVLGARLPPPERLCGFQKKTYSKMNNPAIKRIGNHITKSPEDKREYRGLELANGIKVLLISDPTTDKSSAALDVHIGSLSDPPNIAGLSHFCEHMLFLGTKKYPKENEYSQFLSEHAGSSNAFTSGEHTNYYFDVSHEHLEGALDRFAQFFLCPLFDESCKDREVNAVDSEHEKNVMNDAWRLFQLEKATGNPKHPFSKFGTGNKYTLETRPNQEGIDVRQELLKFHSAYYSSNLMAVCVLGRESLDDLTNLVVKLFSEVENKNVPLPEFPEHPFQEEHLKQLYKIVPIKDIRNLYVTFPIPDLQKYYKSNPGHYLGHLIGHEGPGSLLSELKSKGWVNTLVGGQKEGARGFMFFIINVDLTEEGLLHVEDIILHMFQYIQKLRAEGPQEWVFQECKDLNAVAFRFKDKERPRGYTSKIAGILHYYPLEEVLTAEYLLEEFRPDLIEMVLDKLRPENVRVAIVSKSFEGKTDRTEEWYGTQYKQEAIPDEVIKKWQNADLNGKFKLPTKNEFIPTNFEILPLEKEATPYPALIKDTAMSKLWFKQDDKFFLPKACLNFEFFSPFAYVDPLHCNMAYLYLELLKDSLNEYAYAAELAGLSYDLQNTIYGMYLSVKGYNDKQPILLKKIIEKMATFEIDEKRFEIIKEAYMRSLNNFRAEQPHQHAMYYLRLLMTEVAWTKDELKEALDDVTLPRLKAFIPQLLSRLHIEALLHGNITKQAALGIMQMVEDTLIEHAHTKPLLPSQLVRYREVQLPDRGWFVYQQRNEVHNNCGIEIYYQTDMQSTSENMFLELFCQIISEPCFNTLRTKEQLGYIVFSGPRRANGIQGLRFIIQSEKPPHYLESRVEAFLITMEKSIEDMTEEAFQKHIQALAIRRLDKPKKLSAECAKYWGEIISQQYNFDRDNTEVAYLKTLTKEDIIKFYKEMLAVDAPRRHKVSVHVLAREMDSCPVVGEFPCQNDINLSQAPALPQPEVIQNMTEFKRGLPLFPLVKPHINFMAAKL

[5] = molecular target: T2, Alkaline phosphatase, tissue-nonspecific isozyme (Homo sapiens, UniProt P05186); experiment: activation of tissue-nonspecific alkaline phosphatase – biochemical, TNAP isozyme, mouse IAP uHTS hits, selectivity assay for mouse IAP activator project, dose response (AID 488880); type: functional
T2 sequence (P05186 whole entry): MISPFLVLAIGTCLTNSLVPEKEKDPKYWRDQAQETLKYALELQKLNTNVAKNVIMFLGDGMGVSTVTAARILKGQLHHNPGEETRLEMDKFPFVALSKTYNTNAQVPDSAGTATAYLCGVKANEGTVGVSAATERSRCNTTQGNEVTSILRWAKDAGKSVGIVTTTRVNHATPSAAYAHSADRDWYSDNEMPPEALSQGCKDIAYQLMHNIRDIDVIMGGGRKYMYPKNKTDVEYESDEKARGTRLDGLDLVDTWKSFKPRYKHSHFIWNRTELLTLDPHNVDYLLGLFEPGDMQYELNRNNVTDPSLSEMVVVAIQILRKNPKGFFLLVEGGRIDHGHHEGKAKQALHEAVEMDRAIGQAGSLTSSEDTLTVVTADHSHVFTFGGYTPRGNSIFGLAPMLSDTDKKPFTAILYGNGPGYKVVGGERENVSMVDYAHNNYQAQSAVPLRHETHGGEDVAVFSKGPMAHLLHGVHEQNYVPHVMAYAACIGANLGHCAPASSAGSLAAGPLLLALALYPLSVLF

Hexokinase HKDC1 = molecular target: T3, Hexokinase HKDC1 (Homo sapiens, UniProt Q2TB90); experiment: activation of HKDC1 glucose phosphorylation – biochemical, W721R variant, dose response (AID 504730); type: functional
T3 sequence (Q2TB90 whole entry): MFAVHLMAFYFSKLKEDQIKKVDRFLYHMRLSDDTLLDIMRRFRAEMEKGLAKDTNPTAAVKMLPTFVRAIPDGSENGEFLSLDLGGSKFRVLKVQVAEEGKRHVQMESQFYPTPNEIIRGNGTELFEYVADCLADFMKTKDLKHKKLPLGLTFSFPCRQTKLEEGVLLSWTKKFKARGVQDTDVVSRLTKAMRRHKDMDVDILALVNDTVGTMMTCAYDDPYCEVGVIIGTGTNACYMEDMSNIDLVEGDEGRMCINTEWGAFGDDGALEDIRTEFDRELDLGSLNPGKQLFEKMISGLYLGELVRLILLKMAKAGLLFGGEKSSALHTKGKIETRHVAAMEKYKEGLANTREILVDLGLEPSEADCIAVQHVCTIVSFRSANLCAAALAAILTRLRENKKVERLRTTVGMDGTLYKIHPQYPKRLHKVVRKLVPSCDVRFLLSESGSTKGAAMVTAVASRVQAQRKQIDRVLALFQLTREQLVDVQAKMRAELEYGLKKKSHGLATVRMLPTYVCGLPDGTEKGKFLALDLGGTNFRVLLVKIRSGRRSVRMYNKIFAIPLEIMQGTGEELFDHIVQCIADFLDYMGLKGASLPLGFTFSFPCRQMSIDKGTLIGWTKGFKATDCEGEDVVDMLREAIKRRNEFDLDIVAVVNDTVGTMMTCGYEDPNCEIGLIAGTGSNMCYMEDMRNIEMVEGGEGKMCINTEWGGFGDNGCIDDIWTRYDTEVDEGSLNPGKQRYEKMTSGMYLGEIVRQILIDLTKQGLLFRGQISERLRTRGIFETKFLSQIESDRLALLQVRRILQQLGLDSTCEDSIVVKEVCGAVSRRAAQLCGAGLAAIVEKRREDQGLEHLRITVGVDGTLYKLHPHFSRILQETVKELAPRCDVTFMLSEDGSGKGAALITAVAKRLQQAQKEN

Hexokinase-1 = molecular target: T4, Hexokinase-1 (Homo sapiens, UniProt P19367); experiment: HK1 enzyme activation by HKDC1 hits – biochemical, selectivity assay for HKDC1 activator project, dose response (AID 504762); type: functional
T4 sequence (P19367 whole entry): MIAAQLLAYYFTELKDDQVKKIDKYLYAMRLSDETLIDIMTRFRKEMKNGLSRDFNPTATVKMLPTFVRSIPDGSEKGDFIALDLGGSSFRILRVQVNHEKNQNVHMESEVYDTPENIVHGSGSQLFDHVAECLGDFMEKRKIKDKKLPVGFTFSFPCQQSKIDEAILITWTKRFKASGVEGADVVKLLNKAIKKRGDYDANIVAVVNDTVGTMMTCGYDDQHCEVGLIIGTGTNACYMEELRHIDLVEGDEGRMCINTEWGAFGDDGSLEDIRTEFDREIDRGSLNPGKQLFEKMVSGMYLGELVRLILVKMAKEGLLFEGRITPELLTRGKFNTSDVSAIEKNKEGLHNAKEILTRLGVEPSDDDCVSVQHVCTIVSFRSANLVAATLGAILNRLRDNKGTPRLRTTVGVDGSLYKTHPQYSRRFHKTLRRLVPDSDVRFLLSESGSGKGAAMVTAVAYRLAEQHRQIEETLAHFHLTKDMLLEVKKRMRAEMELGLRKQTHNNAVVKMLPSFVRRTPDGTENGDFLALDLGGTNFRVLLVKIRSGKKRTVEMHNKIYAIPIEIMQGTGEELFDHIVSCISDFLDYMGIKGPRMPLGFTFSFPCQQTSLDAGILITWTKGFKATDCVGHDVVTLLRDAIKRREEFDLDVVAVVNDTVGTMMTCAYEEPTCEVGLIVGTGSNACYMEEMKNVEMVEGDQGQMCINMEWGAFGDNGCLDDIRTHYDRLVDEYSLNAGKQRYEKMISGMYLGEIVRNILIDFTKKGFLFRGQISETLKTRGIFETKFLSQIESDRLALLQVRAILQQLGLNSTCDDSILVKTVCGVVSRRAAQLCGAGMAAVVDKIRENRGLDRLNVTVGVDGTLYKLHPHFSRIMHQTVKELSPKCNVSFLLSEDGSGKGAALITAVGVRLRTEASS

[6] = Luminescence Cell-Based Dose Confirmation HTS to Identify Activators of 5'UTR Stem-Loop Driven Alpha-Synuclein mRNA Translation in H4 Neuroglioblastoma Cells. [Related pubchem assays: 1829 (Project Summary), 1814 (Primary HTS)]; type: functional
[7] = THP-1 cell cytotoxicity, dose response, cytotoxicity control for non-replicating M. tuberculosis project (AID 489025); type: functional
[8] = Luminescence Cell-Based Dose Retest to Confirm Inhibitors of Cancer Stem Cells. [Related pubchem assays (depositor defined):AID2717, AID2721]; type: functional; conditions: Homo sapiens
[9] = Luminescence Cell-Based Dose Response HTS to Identify Activators of Luciferase Translation or Activity in H4 […] Cells. [Related pubchem assays: 1829 (Project Summary), 1814 (Primary HTS)]; type: functional
H4 = experiment: Luminescence Cell-Based Dose Response HTS to Identify Activators of 5'UTR Stem-Loop Driven Prion Protein mRNA Translation in H4 Neuroglioblastoma Cells. [Related pubchem assays: 1829 (Project Summary), 1814 (Primary HTS)]; type: functional; conditions: Homo sapiens
cells = type: functional
[10] = molecular target: T5, Microphthalmia-associated transcription factor (Homo sapiens, UniProt O75030); experiment: reducers of TRPM1 reporter luminescence, concentration series – cell-based, SK-MEL-5, cherry-picked, set 3, MITF inhibitor project, dose response (AID 493073); type: functional;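 also: SK-MEL-5 melanoma cells with luciferase driven by the MITF target TRPM1 promoter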
T5 sequence (O75030 whole entry): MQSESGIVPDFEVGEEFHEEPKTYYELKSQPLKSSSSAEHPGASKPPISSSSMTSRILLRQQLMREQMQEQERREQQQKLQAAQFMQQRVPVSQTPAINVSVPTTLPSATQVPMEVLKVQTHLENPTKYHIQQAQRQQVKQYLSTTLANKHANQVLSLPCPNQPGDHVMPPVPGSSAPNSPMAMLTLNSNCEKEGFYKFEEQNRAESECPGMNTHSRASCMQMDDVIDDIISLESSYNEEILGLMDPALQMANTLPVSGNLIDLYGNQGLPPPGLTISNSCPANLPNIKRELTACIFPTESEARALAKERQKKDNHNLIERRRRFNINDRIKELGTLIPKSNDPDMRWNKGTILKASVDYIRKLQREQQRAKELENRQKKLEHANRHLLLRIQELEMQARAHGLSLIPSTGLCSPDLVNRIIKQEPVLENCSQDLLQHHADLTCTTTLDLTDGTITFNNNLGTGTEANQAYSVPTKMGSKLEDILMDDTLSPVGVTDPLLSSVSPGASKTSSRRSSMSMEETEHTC

[11] = Vero E6 cell cytotoxicity, dose response, cytotoxicity control for non-replicating M. tuberculosis project, secondary assay (AID 492998); type: functional, VeroE6; conditions: Vero C1008

CSC1=NSC2=NC(=O)/C(=C/c3coc4ccc(O)cc4c3=O)C(=N)N12
AC50 [1]: 7.62 µM (active) | IC50 [2]: > 55.7 µM (not active) | EC50 [3]: 24.9 µM (active) | EC50 [4]: 20.8 µM (active) | IC50 (Insulin-degrading enzyme): > 6.21 µM (active) | EC50 [5]: 30.2 µM (active)

Cc1ccc2oc(=O)c3cnn(CC(=O)N4CCc5ccccc5C4)c3c2c1
EC50 (Hexokinase HKDC1): 16 µM (active) | EC50 (Hexokinase-1): 36.7 µM (inactive)

O=C(Nc1cccc(S(=O)(=O)N2CCCCC2)c1)c1ccc([N+](=O)[O-])o1
EC50 [6]: > 120 µM (not active) | CC50 [7]: 8.73 µM (active) | AC50 [8]: 2.44 µM (active) | EC50 [9]: > 120 µM (not active) | EC50 (H4): > 120 µM (not active) | IC50 (cells): 5.03 µM (active) | AC50 [10]: 11.9 µM (active) | CC50 [11]: 4.29 µM (active)

— ChEMBL document CHEMBL1201862, “PubChem BioAssay data set” (2004)
